logP data for 12 molecules are collected here from the SangsterLogP compilation.

SMILES strings stand for the structures.

In turn, `O=[N+]([O-])c1ccc2nn[nH]c2c1` registered a logP of 1.95.
Turning to `Nc1cccc2ncccc12`, the log partition coefficient (logP) was found to be 1.27.
In turn, `Nc1nc2ccccc2[nH]1` displayed a log partition coefficient (logP) of 1.34.
Molecule `O=[N+]([O-])c1ccncc1` displayed a logP of 0.6.
Then `O=[N+]([O-])c1ccc2nc[nH]c2c1`, with 1.5.
`Nc1cc2ccccc2cc1N` gave a logP of 1.54.
The value for `Cc1cc(N)c([N+](=O)[O-])cc1C` was 2.07; that for `Nc1cccc2c(N)cccc12` was 0.89.
`Nc1ccc2[nH]ccc2c1` displayed a logP of 1.13.
As to `Cc1ccc(N)c([N+](=O)[O-])c1`, the logP came to 1.82.
The value for `Nc1cccc2cccc(N)c12` was 1.78.
Take `Nc1ccc2[nH]ncc2c1`: the logP turned out to be 0.65.
